The results in this text go back to patent US20200121579A1, “TOPICAL COMPOSITIONS” (DSM IP ASSETS B.V., priority 2017, published 2020).

One assay has as its system Propionibacterium acnes. The experiment in a line: Antimicrobial efficacy in analogy to challenge test NF EN ISO11930, P. acnes. Conditions: 0.1 wt.-% single active; for Propionibacterium acnes colony count: 24 h after contamination, 22° C., initial count 310000 cfu/ml. It counts as cell-based. The source says:
The wells are contaminated with either Propionibacterium acnes or Escherichia coli at 2.5*10^5 to 5.6*10^5 cfu/ml to obtain the initial contamination as outlined in table 1. […] (The term “Log reduction” is a well-known mathematical term used to show the relative number of cells, germs, microbes, etc., reduced in or on something, e.g. a 2 log reduction means the number of microbes is 100 times smaller and a 3 log reduction means the number of microbes is 1000 times smaller).

Another assay deals with Escherichia coli. The experiment in a line: Antimicrobial efficacy in analogy to challenge test NF EN ISO11930, E. coli. It counts as cell-based. Conditions: 0.1 wt.-% single active; for Escherichia coli colony count: 24 h after contamination, 22° C., initial count 250000 cfu/ml. An excerpt: The wells are contaminated with either Propionibacterium acnes or Escherichia coli at 2.5*10^5 to 5.6*10^5 cfu/ml to obtain the initial contamination as outlined in table 1.

Consider `O=C(CO)[C@H](O)CO` (racemic) [erythrulose], for which, in the assay with Propionibacterium acnes, the “Propionibacterium acnes colony count” value is 3000 cfu/ml. In addition, in the assay on Escherichia coli, the “Δ (change of microorganism count t = 24 h vs t = 0)” value was “+112%” and the “Escherichia coli colony count” value was found to be 530000 cfu/ml.
For `CC(=O)OC/C=C(C)/C=C/C=C(C)/C=C/C1=C(C)CCCC1(C)C` [retinyl acetate], in the assay with Propionibacterium acnes, the “Propionibacterium acnes colony count” value is recorded as 3000 cfu/ml. In the assay with Propionibacterium acnes (24 h vs 0 h), the Log reduction stood at 2. In addition, in the assay with Escherichia coli, the “Δ (change of microorganism count t = 24 h vs t = 0)” value is reported as “+112%” and the “Escherichia coli colony count” value is reported as 530000 cfu/ml.
